Assays:
[1] = system: SJL splenocytes (irradiated CBA/CaJ splenocyte stimulators); test: T cell proliferation in mixed leukocyte cultures, SJL splenocytes; type: cell-based, mouse; conditions: responder +
Description: In evaluating the effect of a guanosine derivative on alloantigen-induced proliferation, it is imperative to minimize the simultaneous mitogenic response of B cells to contact with a guanosine derivative. Spleen cells from SJL mice (whose B cells are hyporesponsive to the mitogenic effect of a guanosine derivative, but not to its adjuvant activity) were used as responder cells in two studies. Those responder cells were stimulated with irradiated allogenic cells (from CBA/CaJ mice) in the presence of no added nucleoside, incremental amounts of a guanosine derivative of the invention, 7M8oGuo, or with another guanosine derivative, 8MGuo, used as a positive control.
^1 Plus signs (+) are utilized to indicate the presence of the
material of the column heading in the culture medium, whereas minus signs
(-) are utilized to show absence of such a material from the culture
^3 Allogeneic cells used to costimulate proliferation, after exposure
T Helper Cell Activation. 1.5×10^5 viable spleen cells from SJL mice or CBA/CaJ mouse thymocytes were cultured with or without an equal number of irradiated (2500 rads) spleen cells from CBA/CaJ or BDFl mice respectively, in 0.2 ml of culture medium in the presence of incremental concentrations of the exemplary 7,8-disubstituted guanine derivatives. The lymphocyte culture medium utilized was that described before, and was further supplemented with 2-mercaptoethanol to a final concentration of 50 uM. Thymocyte cultures also contained 10 percent (v/v) of a concanavalin A-conditioned rat spleen cell medium sold under the name Rat T Cell Monoclone by Collaborative Research. Following 90 hours of culture, one microCurie [^3 H]TdR per culture was admixed, and the resulting culture was maintained for a further six hour time period.
The cultures were harvested with a Brandel cell harvester (M24V, Biological Research and Development Laboratories, Rockville, Md.) onto glass fiber filter disks. Filter disks were transferred to plastic scintillation vials, covered with liquid scintillation cocktail, and counted in a Beckman LS5700 liquid scintillation counter.

[2] = system: murine lymphocytes (sheep red blood cells as antigen); test: Antigen-specific adjuvanticity: direct anti-SRBC plaque forming cells, murine system; type: cell-based, mouse; conditions: for Direct anti-SRBC PFC/Culture at supraoptimal concentration: 3 × 10^-4 M
Method in brief: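 Murine spleen cells (5×10^6 to 10^7) cultured 4 or 5 days in 1.0 ml 5% FCS RPMI 1640, 37 °C, 10% CO2, with or without SRBC immunogen. Anti-SRBC direct plaque-forming cells counted per culture by modified Jerne–Nordin hemolytic plaque assay with guinea pig complement; mean ± standard error at peak concentration.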

`C=CCn1c(=S)n([C@@H]2O[C@H](CO)[C@@H](O)[C@H]2O)c2nc(N)[nH]c(=O)c21` [7a8MGuo, 7-(2-Propenyl)-8-thioxoguanosine] was tested, and the “[3H] TdR Uptake” value ([1]; Study 1, stimulator +, 10^-5 M) was 67,500 ± 2900 counts per minute, the “[3H] TdR Uptake” value ([1]; Study 1, stimulator -, 10^-5 M) was 36,700 ± 2400 counts per minute and the “[3H] TdR Uptake” value ([1]; Study 2, stimulator +, 10^-5 M) was 36,400 ± 3800 counts per minute. For the same compound, the “[3H] TdR Uptake” value ([1]; Study 2, stimulator -) was 19,100 ± 1100 counts per minute, the “Direct anti-SRBC PFC/Culture at supraoptimal concentration” value ([2]; Table 5, supraoptimal concentration (*)) was 925 ± 80 PFC/Culture and the “Peak Direct anti-SRBC PFC/Culture” value ([2]; Table 5, murine system, at peak concentration) was 1850 ± 70 PFC/Culture. The “Peak Direct anti-SRBC PFC/Culture” value ([2]; Table 6, murine system, at peak concentration) was 1867 ± 150 PFC/Culture, the “Peak Direct anti-SRBC PFC/Culture” value ([2]; Table 6, study a) was 1850 ± 50 PFC/Culture and the “Direct anti-SRBC PFC/Culture at supraoptimal concentration” value ([2]; Table 6, study b, supraoptimal amount (*)) was 925 ± 80 PFC/Culture. The “Peak Direct anti-SRBC PFC/Culture” value ([2]; Table 6, study c) was 1975 ± 109 PFC/Culture, the “Direct Anti-SRBC PFC/Culture” value ([2]; Table 8, 1 × 10^-5 M) was 1049 PFC/Culture and the “Average 1 Log Plaque Values” ([2]; Table 9, murine, * = single study) was 326,840 ± 170,907 per micromole. The “adjuvanticity higher / more active than comparison compound of U.S. Pat. No. 4,643,992” value ([2]; murine system (Table 5), vs 7m8oGuo or compounds of that patent) was “more than 100%”.

Source: patent US5011828A, “Immunostimulating guanine derivatives, compositions and methods” (priority 1988, dated 1991)
